Test results taken from PubChem BioAssay AID743168 (Sanford-Burnham Center for Chemical Genomics, 2013).
Active and inactive are the calls of the source.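 How the source made its calls: active means compounds whose IC50 here is at most triple their IC50 in the earlier fluorescent lipid screen; inactive means the rest.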

Molecular target: Diacylglycerol O-acyltransferase 1 (Homo sapiens) (UniProt O75907)
Test: human DGAT-1 enzyme inhibitors, dose response, counter-screen for TAG accumulation inhibitor project, biochemical, recombinant hDGAT-1, [14C]-TAG formation, radiolabel (AID 743168)
Conditions: scintillation

Sequence of Diacylglycerol O-acyltransferase 1 (Homo sapiens) (O75907 whole entry, looked up): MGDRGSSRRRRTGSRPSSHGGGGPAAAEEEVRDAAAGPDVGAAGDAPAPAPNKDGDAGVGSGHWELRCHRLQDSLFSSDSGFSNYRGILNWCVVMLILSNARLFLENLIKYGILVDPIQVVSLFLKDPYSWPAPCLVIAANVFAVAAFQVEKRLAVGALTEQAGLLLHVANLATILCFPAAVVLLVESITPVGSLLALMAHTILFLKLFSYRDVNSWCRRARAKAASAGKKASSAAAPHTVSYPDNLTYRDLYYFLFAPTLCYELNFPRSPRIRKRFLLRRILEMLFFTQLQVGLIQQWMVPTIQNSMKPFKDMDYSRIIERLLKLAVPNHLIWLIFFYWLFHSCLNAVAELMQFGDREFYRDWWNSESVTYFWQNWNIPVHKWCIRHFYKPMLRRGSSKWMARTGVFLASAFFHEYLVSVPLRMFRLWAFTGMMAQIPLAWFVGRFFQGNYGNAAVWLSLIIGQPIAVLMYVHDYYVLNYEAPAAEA

Q: How did the IC50 turn out when `O=C(Nc1cccc(-c2nc3ccccc3[nH]2)c1)c1cccc2c1C(=O)N(CC1CC1)C2` was run?
A: > 50 µM (inactive)

Q: Which IC50 does the source give for `CCOCCN1Cc2cccc(C(=O)Nc3cccc(-c4nc5ccccc5[nH]4)c3)c2C1=O` here?
A: > 50 µM (inactive)

Q: With `COCCN1Cc2cccc(C(=O)Nc3cccc(-c4nc5ccccc5[nH]4)c3)c2C1=O` as the molecule, how does the IC50 read?
A: > 50 µM (inactive)

Q: Which IC50 does the source give for `O=C(Nc1cccc(-c2nc3ccccc3[nH]2)c1)c1cccc2c1C(=O)N(CCOc1ccccc1)C2` here?
A: > 50 µM (inactive)

Q: How did the IC50 turn out when `CCCCN1Cc2cccc(C(=O)Nc3cccc(-c4nc5ccccc5[nH]4)c3)c2C1=O` was run?
A: > 50 µM (inactive)
